# Test results from ChEMBL document CHEMBL1201862, “PubChem BioAssay data set” (2004).
# Calls of active or inactive are those of the source.
# Assays:
# [1] = Luminescence Cell-Based Dose Response HTS to Identify Inhibitors of 5'UTR Stem-Loop Driven Prion Protein mRNA Translation in H4 Neuroglioblastoma Cells. [Related pubchem assays: 1827 (Project Summary), 1813 (Primary HTS)]; type: functional
# [2] = inhibitors of intracellular T. cruzi replication, confirmation, NIH3T3 host cells, beta-gal luminescence (AID 2044); type: functional, cell-based;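 note: intracellular parasites grown in NIH/3T3 mouse fibroblasts as host cells; luminescent beta-galactosidase reporter signal from transgenic T. cruzi replicating inside host cells; inhibitors lower the luminescence signal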
# [3] = microbe, parasite or virus in culture; type: functional; conditions: Mycobacterium tuberculosis
# [4] = cytotoxicity toward NIH3T3 fibroblasts, dose response, counter-screen, cell-based, ATP luminescence, mouse fibroblasts (AID 2010); type: functional;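 note: cells exposed to compound for about 90 hours before reading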
# [5] = Shn3 3'UTR reporter inhibitors, dose response, cell-based, Clone20 osteoblasts, firefly luciferase, cherry-picked (AID 624132); type: functional;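 note: firefly luciferase luminescence from reporter carrying the Shn3 3'UTR in osteoblasts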
# [6] = HepG2 cell cytotoxicity, dose response, cytotoxicity control for Shn3 inhibitor project, CellTiter-Glo, cherry-picked (AID 624134); type: functional, cell-based
# [7] = control 3'UTR Renilla luciferase suppression, dose response, counter-screen for Shn3 inhibitor project, cell-based, Clone20-Shn3RL, cherry-picked (AID 624133); type: functional
# [8] = Luminescence Cell-Based Dose Response HTS to Identify Activators of Luciferase Translation or Activity in H4 […] Cells. [Related pubchem assays: 1829 (Project Summary), 1814 (Primary HTS)]; type: functional
# Cytochrome P450 1A2 = target: T1, Cytochrome P450 1A2 (Homo sapiens, UniProt P05177);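 note: PubChem cytochrome P450 panel assay, CYP1A2 panel member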
# T1 sequence (P05177 whole entry): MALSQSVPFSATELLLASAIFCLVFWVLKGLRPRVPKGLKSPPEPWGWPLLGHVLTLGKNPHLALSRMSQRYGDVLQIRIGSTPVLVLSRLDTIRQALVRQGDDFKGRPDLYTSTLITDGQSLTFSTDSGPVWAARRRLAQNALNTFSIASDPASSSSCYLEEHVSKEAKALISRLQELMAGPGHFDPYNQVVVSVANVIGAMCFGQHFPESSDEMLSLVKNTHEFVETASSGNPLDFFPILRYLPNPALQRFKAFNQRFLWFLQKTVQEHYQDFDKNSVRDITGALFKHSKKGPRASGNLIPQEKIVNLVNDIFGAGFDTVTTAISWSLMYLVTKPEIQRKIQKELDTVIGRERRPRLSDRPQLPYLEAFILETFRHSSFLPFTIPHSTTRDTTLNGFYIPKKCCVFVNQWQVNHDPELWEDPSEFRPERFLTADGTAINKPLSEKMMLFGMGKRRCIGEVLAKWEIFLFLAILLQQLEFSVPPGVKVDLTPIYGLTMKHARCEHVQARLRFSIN
# Cytochrome P450 2C9 = Cytochrome P450 2C9 (Homo sapiens, UniProt P11712)
# Chain of Cytochrome P450 2C9 (P11712 whole entry): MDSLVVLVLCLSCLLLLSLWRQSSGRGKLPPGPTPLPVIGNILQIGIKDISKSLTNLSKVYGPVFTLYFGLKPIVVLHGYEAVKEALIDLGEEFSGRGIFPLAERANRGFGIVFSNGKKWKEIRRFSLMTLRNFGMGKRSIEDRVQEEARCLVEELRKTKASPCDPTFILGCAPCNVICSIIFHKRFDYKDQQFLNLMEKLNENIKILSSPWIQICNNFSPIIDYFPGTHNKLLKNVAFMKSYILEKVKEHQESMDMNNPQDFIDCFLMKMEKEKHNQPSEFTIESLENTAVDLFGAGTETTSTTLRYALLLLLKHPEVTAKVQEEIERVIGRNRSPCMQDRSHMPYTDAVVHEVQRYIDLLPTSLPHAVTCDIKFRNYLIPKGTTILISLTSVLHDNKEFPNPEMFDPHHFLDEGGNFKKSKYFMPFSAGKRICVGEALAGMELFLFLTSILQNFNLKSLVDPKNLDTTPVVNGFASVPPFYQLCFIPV
# [9] = growth suppression of PTEN-null colon cells, dose response, cell-based, HCT116 PTEN knockout (AID 1047); type: functional;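 note: HCT116 colon tumor cells with PTEN knocked out; cells exposed to compound for 60 hours before readout; potency for loss of cell viability measured by luminescence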
# [10] = growth suppression of beta-catenin-knockout colon cells, dose response, cell-based, HCT116, human colon tumor (AID 1045); type: functional;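 note: HCT116 colon tumor cells with beta catenin knocked out; cells exposed to compound for 60 hours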
# [11] = target: T2, RNA-binding protein pos-1 (Caenorhabditis elegans, UniProt G5EF15); experiment: inhibitors of POS-1/mex-3 RNA binding, dose response, biochemical, fluorescence polarization (AID 1964);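 note: purified POS-1 fused to maltose binding protein made in E. coli; potency of compounds blocking POS-1 binding to fluorescent RNA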
# T2 sequence (G5EF15 whole entry): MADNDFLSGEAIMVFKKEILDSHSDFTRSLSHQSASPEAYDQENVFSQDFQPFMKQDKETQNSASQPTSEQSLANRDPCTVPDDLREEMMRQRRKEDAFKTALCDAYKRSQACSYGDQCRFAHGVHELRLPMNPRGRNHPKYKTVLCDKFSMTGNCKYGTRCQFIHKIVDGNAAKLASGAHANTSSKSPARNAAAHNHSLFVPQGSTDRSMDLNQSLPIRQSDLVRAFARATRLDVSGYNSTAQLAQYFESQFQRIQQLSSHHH
# [12] = target: T3, Zinc finger protein mex-5 (Caenorhabditis elegans, UniProt Q9XUB2); experiment: MEX-5/TCR-2 RNA interaction inhibitors, dose response, biochemical, C. elegans, fluorescence polarization (AID 1960)
# T3 sequence (Q9XUB2 whole entry): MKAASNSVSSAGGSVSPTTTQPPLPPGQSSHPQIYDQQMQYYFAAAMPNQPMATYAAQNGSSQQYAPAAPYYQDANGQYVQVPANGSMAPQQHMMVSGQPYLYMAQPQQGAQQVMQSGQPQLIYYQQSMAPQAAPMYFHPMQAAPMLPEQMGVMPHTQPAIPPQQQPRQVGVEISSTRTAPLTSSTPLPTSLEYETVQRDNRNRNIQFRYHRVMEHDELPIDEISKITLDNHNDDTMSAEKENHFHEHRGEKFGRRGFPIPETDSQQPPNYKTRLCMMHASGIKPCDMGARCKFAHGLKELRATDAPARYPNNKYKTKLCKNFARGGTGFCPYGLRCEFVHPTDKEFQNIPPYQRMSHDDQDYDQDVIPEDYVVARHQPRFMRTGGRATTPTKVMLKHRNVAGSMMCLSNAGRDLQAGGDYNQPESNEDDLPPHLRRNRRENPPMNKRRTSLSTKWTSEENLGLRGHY
# [13] = target: T4, Heat shock factor protein 1 (Mus musculus, UniProt P38532); experiment: inhibition of MG132-induced HSE-luciferase signal, confirmation, cell-based, NIH3T3, luminescence, dose retest (AID 2382); type: functional;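 note: NIH3T3 fibroblasts with HSF1-driven luciferase reporter stressed by proteasome inhibitor MG132; luminescence from HSF1-driven luciferase expression after 8 hours of MG132 stress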
# T4 sequence (P38532 whole entry): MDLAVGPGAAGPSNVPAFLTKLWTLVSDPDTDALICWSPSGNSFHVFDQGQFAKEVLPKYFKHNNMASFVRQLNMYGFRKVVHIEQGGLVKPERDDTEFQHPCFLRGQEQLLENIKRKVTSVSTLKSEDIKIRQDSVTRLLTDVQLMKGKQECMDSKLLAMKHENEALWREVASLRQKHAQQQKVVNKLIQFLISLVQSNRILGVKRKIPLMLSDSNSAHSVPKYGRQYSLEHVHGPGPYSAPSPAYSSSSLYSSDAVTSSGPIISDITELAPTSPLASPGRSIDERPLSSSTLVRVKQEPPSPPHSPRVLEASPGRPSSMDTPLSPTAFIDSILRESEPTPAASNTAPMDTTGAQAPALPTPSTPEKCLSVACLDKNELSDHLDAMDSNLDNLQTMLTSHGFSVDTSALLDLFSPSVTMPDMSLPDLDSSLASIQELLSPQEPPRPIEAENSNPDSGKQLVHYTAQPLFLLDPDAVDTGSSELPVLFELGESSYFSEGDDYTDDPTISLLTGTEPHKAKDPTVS
# [14] = inhibitors of SNCA 5'UTR-driven reporter translation, confirmation, H4 neuroglioma cells, luminescence (AID 1988); type: functional, cell-based
# Fatty acid synthase [15] = target: T5, Fatty acid synthase (Homo sapiens, UniProt P49327); experiment: FAS thioesterase domain inhibitors, dose response, biochemical, endpoint fluorescence intensity, uHTS hits (AID 624327); type: functional;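 note: fluorescence from hydrolysis of an O-methyl fluorescein acyl ester substrate by the enzyme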
# T5 sequence (P49327 whole entry, the tested form may be a part): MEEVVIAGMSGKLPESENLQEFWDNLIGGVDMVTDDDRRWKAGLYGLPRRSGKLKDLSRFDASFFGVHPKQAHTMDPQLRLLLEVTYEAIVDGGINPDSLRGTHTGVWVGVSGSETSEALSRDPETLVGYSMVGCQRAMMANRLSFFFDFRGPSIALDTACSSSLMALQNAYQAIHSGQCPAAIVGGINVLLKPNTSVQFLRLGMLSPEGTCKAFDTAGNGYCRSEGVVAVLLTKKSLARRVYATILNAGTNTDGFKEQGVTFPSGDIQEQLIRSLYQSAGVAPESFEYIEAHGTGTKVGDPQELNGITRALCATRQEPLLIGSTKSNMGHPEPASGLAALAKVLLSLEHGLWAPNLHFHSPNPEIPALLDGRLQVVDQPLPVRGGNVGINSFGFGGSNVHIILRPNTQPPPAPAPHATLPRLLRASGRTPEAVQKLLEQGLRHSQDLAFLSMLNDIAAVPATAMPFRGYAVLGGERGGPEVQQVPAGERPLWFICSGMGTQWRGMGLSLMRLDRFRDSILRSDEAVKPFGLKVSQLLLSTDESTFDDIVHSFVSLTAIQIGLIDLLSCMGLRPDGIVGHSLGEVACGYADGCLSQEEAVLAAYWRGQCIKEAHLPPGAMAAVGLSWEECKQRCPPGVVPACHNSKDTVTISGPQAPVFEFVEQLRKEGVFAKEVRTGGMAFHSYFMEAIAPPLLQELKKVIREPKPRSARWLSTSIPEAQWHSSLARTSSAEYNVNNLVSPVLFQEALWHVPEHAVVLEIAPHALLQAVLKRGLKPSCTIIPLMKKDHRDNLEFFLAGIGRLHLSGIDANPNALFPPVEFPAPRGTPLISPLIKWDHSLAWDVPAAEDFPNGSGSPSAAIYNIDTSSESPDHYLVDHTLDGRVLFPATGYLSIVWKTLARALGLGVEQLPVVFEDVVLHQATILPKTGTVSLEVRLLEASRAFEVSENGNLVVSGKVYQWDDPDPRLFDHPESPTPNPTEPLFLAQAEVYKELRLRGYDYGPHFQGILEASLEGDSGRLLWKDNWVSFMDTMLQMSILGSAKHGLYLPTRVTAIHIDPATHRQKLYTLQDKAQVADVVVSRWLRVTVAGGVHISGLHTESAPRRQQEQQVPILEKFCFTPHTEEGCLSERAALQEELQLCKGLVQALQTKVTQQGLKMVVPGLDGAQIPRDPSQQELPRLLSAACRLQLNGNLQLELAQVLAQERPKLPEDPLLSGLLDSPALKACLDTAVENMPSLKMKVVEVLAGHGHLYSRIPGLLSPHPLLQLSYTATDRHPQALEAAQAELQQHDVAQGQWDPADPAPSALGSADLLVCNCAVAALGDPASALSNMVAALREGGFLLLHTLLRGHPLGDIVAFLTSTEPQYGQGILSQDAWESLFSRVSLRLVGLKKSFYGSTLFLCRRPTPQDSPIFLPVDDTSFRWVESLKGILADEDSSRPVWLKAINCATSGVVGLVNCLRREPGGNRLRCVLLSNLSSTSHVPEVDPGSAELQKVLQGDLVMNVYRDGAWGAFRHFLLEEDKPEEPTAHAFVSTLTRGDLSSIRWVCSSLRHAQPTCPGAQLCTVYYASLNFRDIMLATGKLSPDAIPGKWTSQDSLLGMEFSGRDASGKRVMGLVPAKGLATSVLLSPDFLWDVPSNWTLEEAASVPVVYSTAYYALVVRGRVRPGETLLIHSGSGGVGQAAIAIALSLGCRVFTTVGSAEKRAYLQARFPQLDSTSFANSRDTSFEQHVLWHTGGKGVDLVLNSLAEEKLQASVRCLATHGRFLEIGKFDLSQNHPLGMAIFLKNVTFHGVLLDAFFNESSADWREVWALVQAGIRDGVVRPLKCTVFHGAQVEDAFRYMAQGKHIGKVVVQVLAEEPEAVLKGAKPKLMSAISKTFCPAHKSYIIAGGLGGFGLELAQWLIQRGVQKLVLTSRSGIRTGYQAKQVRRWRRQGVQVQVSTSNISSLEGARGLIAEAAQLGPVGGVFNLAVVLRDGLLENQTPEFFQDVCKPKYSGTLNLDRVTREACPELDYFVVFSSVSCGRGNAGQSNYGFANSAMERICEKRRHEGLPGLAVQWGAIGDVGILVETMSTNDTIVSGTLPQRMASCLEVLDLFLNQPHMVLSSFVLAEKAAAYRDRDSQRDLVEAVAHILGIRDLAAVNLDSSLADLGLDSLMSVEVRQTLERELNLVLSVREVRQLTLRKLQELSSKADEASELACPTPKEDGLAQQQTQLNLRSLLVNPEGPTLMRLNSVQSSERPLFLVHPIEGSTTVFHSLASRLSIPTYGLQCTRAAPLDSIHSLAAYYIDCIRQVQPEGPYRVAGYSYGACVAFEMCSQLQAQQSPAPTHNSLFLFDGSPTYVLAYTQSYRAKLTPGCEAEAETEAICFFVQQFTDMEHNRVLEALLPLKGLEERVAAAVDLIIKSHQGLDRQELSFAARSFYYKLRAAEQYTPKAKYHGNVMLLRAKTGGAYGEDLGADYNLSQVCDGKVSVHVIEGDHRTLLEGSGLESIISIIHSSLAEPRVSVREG
# Fatty acid synthase [16] = target: T5, Fatty acid synthase; experiment: FAS thioesterase domain inhibitors, dose response, biochemical, kinetic fluorescence intensity (AID 624326); type: functional;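 note: rate of fluorescence rise from hydrolysis of a fluorogenic O-methyl fluorescein ester substrate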
# Cytochrome P450 2D6 = Cytochrome P450 2D6 (Homo sapiens, UniProt P10635);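 note: CYP2D6 member of a cytochrome P450 panel assay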
# Chain of Cytochrome P450 2D6 (P10635 whole entry): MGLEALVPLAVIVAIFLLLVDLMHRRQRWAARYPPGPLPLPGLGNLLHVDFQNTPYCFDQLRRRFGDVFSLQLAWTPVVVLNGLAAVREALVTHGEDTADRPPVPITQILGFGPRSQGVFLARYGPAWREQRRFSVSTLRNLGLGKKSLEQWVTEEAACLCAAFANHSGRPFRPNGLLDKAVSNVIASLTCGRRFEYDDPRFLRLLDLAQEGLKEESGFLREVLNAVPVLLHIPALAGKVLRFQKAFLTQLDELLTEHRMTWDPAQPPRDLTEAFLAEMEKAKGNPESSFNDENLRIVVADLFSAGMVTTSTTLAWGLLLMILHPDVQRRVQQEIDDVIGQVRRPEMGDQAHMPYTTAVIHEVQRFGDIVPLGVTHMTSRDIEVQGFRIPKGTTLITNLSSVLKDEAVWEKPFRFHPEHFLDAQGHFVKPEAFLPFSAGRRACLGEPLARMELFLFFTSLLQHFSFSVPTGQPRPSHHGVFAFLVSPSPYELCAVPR
# [17] = target: T6, Corticotropin-releasing factor receptor 2/Corticotropin-releasing factor-binding protein (Homo sapiens, UniProt P24387+Q13324); experiment: Dose Response confirmation of uHTS hits for small molecule antagonists of the CRF-binding protein and CRF-R2 receptor complex.; type: functional; conditions: read-out: IC50_Mean
# T6 sequence (Q13324 whole entry): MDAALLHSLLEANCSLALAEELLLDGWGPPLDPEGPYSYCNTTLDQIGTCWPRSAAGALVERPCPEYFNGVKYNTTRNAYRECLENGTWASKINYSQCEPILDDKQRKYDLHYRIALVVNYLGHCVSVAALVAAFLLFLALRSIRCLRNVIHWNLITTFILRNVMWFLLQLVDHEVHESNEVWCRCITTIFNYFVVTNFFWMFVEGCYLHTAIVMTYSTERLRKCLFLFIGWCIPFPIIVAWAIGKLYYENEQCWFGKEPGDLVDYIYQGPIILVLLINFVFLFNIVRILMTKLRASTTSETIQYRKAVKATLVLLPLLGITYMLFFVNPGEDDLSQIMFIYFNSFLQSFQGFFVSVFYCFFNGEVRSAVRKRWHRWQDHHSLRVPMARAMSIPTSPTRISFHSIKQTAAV
# T6 sequence (P24387 whole entry): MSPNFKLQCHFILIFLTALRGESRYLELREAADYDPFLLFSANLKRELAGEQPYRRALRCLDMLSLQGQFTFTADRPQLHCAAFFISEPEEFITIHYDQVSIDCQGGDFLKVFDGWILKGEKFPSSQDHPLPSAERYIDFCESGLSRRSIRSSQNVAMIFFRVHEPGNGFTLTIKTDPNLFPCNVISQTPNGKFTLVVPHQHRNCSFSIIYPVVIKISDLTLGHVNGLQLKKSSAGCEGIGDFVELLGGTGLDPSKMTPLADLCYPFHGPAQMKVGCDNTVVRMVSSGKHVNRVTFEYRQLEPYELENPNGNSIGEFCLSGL
# [18] = target: T6, Corticotropin-releasing factor receptor 2/Corticotropin-releasing factor-binding protein; experiment: activators of CRF receptor 2 with binding protein – uHTS hits, confirmation (AID 602473); type: functional; conditions: read-out: EC50_Mean
# [19] = HEp-2 cell cytotoxicity, dose response, cytotoxicity control for RSV inhibitor project, HTS (AID 2410); type: functional; conditions: human respiratory syncytial virus
# INS1 = experiment: beta cell apoptosis inhibitors, cytokine rescue, dose response, luminescence, retest (AID 449756); type: functional, cell-based; conditions: Rattus norvegicus;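 note: cell death triggered by IL-1 beta plus TNF-alpha plus IFN-gamma mixture; protective hits raise ATP signal compared with cytokine alone wells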
compound,measurement,setting,value
CN(C)c1ccc(-c2noc(-c3ccccc3O)n2)cc1,EC50,[1],10.5 µM (inconclusive)
CCc1ccc2oc(-c3cc(/N=C/c4cccc(OC)c4O)ccc3O)nc2c1,EC50,[2],2.45 µM (active)
same,CC50,[3],> 40 µM (active)
same,EC50,[4],> 30 µM (not active)
CN(C)S(=O)(=O)c1cccc(NC(=O)c2cccc(S(=O)(=O)N3CCc4ccccc43)c2)c1,AC50,[5],3.92 µM (active)
same,AC50,[6],60.9 µM (active)
same,AC50,[7],11.7 µM (active)
CC(C)(C)c1nc(SCC(=O)Nc2nc3c(s2)CCCC3)c2ccccc2n1,EC50,[2],1.45 µM (active)
same,CC50,[3],38.7 µM (active)
same,EC50,[4],12.5 µM (active)
CC(C)c1nc2oc3ccccc3c(=O)c2c(=O)n1-c1ccccc1,EC50,[8],63.4 µM (active)
same,AC50,Cytochrome P450 1A2,39.8 µM (inconclusive)
same,AC50,Cytochrome P450 2C9,1.78 µM (inconclusive)
O=C(COC(=O)c1[nH]nc2ccccc12)NC(=O)NC12CC3CC(CC(C3)C1)C2,EC50,[9],14.8 µM (active)
same,EC50,[10],22.1 µM (active)
C=CCN=C(S)N1CCN(c2cccc(C(F)(F)F)c2)CC1,EC50,[11],> 300 µM (not active)
same,EC50,[12],> 300 µM (not active)
"COC1=CC(=O)c2ccccc2C1=O [2-Methoxy-1,4-naphthoquinone]",CC50,[3],12.7 µM (active)
COc1ccc(-c2csc(NC(C)c3nc4cc(Cl)c(N5CCCCC5)cc4n3CCCO)n2)cc1 (centres undefined),CC50,[3],> 40 µM (active)
CC1=C(C#N)C(=O)N(C)C(=O)/C1=C\N,EC50,[11],> 300 µM (not active)
same,EC50,[12],> 300 µM (not active)
COc1ccc(C(=O)Nc2nc(-c3ccc([N+](=O)[O-])cc3)c(-c3ccccc3)s2)cc1,EC50,[11],> 300 µM (not active)
same,EC50,[12],> 300 µM (not active)
Cc1ccc(OCC(=O)Nc2ccc(O)c(-c3nc4ccccc4o3)c2)cc1,EC50,[9],26.8 µM (active)
same,EC50,[10],32.7 µM (active)
CC(Cc1cccs1)NC(=O)Nc1ccc(Cl)c(Cl)c1 (centres undefined),EC50,[9],17.4 µM (active)
same,EC50,[10],22.6 µM (active)
O=[N+]([O-])c1ccccc1-c1cc(-c2cc(Cl)ccc2O)n[nH]1,EC50,[9],19.5 µM (active)
same,EC50,[10],27 µM (active)
COc1ccc(C2C(C#N)=C(N)OC3=C2C(=O)CC(C)(C)C3)c(OC)c1OC (centres undefined),EC50,[11],> 300 µM (not active)
same,EC50,[12],> 300 µM (not active)
c1ccc(-c2cn3nc(-c4ccccc4)sc3n2)cc1,EC50,[1],0.583 µM (active)
same,EC50,[13],< 160 nM (active)
same,EC50,[14],402 nM (inconclusive)
CC(C)C1C(=O)N(Cc2cn(CCC3OCCO3)nn2)CCS(=O)(=O)N1Cc1ccc(-c2ccc(Cl)cc2)cc1 (centres undefined),AC50,[5],2.13 µM (active)
same,AC50,[6],> 70 µM (inactive)
same,AC50,[7],2.83 µM (active)
CC1CCCC(C)N1/N=C/c1c[nH]c2ccc(Br)cc12 (centres undefined),CC50,[3],24.4 µM (active)
CS(=O)(=O)c1ccc(C(=O)OCC(=O)Nc2cccnc2Cl)cc1[N+](=O)[O-],AC50,[5],9.09 µM (active)
same,AC50,[6],> 70 µM (inactive)
same,AC50,[7],12.9 µM (active)
Cc1cc(C)c(Cn2cnc(-c3ccc([N+](=O)[O-])cc3)c2)c(C)c1,IC50,Fatty acid synthase [15],12.9 µM (active)
same,IC50,Fatty acid synthase [16],12.6 µM (active)
same,AC50,Cytochrome P450 2D6,28.2 µM (inconclusive)
NC(=S)N/N=C/c1ccc(-c2ccc(SC(F)F)cc2)o1,EC50,[2],0.895 µM (active)
same,EC50,[4],12.7 µM (active)
same,IC50,[17],> 47.1 µM (inactive)
same,EC50,[18],> 53 µM (inactive)
same,IC50,Fatty acid synthase [15],16.9 µM (active)
same,IC50,Fatty acid synthase [16],80 µM (inactive)
Nc1c(C(=O)Nc2ccc(S(=O)(=O)N3CCCC3)cc2)sc2nc3cc4c(cc3cc12)CCC4,CC50,[19],27.9 µM (active)
same,EC50,[9],4.9 µM (active)
same,EC50,[10],4.81 µM (active)
same,AC50,INS1,3.29 µM (active)
CCCCNC(=O)C1CC(c2c(Cl)cccc2Cl)=NO1 (centres undefined),EC50,[9],21.8 µM (active)
same,EC50,[10],29.6 µM (active)
O=C(Cc1ccc([N+](=O)[O-])cc1)Nc1cc(C(F)(F)F)cc(C(F)(F)F)c1,EC50,[2],2.18 µM (active)
same,CC50,[3],8.99 µM (active)
same,EC50,[4],7.77 µM (active)
O=C(Nc1ccc(N2CCOCC2)c(Cl)c1)c1ccc([N+](=O)[O-])o1,AC50,[5],6.23 µM (active)
same,AC50,[6],24.9 µM (active)
same,AC50,[7],14.7 µM (active)
O=C(CNc1cccc2ccccc12)N/N=C/C(Br)=C/c1ccccc1,EC50,[9],22.9 µM (active)
same,EC50,[10],25.8 µM (active)
